System: HUVECs
Assay: Capillary-like tube formation assay (tubulogenesis)
Format: cell-based, human
Conditions: for IC50: Homo sapiens, HUVEC, anti-angiogenic activity, read-out: IC50 value; for remarks: remark on IC50 versus sunitinib
Method: FIG. 2 represents effect of Compound 1 on capillary tube formation of HUVECs. Endothelial cells in Matrigel were incubated with ECM basal medium in the presence of compound 1 at the indicated concentrations for 6 h. Cell viability was assessed by Calcein-AM dye added few min. before the completion of 6 h. then photographs at 10×magnification were taken using an inverted microscope. The tubule length of HUVECs was quantified by Leica QWin software. Tubule network formation is expressed as a percentage of that vehicle (0.1% DMSO) treated cells (control).
FIG. 9 represents effect of racemic mixture (chiral isomer 1-1 and chiral isomer 2-1) of Compound 1 on capillary tube formation of HUVECs. Endothelial cells seeded in matrigel were incubated at the indicated concentrations of compound 1 racemic mixtures (1-1 and 2-1) with ECM basal medium for 6 h. Calcein-AM treatment was added to the ECs few minutes before completion of 6 h and pictures were captured using an inverted microscope at 10×magnification. The tubular structures of HUVECs were measured using Leica QWin software and tubulogenesis was expressed as a % of that vehicle (0.1% DMSO) treated cells (control) well.
HUVEC cells were incubated with or without sunitinib (20 nM) for 6 h at indicated concentrations of chiral isomers of Compound 1 (1-1 and 2-1). Photographs were taken using an inverted microscope at 10×magnification after Calcein-AM treatment to the ECs few minutes before completion of 6 h. The tubule length of HUVECs was quantified by Leica QWin software represented as a % of that vehicle (0.1% DMSO) treated cells (control) well.
To examine the effect of Compound 1 on angiogenesis, capillary tube formation assay was performed on regular or reduced growth factor Matrigel, taking VEGF (50 ng/mL) treated cells as a positive control and sunitinib (50 nM) as a negative control (FIG. 2). HUVECs seeded onto the matrigel with compound 1 at different concentrations of (10 μM, 5 μM, 1 μM, 800 nM, 500 nM, 250 nM, 125 nM, 75 nM, 50 nM, 25 nM and 10 nM) were incubated for six hours.
HUVECs (Human Umbilical Vein Endothelial Cells) were seeded onto the pre-coated matrigel (CORNING; 354230) in 96 wells plate at the rate of 11000 cells/well in incomplete ECM basal medium. Control group received vehicle, VEGF at 50 ng/mL as a positive and sunitinib at 50 nM as a negative control were used. Compound 1 at different dose concentrations (10 μM, 5 μM, 1 μM, 800 nM, 500 nM, 250 nM, 100 nM, 75 nM, 50 nM and 25 nM) were employed on seeded HUVECs in incomplete medium. Post 6 h of incubation Calcein-AM (Invitrogen) was added to all the respective groups and then the tubule pattern was observed and photographs were taken using an inverted fluorescent microscope (DM 6000, Leica Microsystems, USA). Relative tubule lengths were measured using Leica Q-Win software version 3.5.1. (Leica Microsystems, Switzerland).

[1] = endothelial tubule network assay

Compound `C=CCCCC1=NC1C(=O)OCC` (stereo not drawn) [Compound 2, Ethyl 3-(pent-4-en-1-yl)-2H-azirine-2-carboxylate] has an IC50 [1] of 250 nM.

`CCOC(=O)C1N=C1CCC=C(C)C` (stereo not drawn) [Compound 4, Ethyl 3-(4-methylpent-3-en-1-yl)-2H-azirine-2-carboxylate] was tested, and the IC50 value (endothelial tubule network assay, result in words) was “Not Active”.

`CCOC(=O)C1N=C1CC/C=C(\C)CCC=C(C)C` (stereo not drawn) [Compound 5, Ethyl (E)-3-(4,8-dimethylnona-3,7-dien-1-yl)-2H-azirine-2-carboxylate] showed an IC50 [1] of 350 nM.

`CCOC(=O)C1N=C1CCc1ccccc1` (stereo not drawn) [Compound 6, Ethyl 3-phenethyl-2H-azirine-2-carboxylate] gave an IC50 [1] of 5000 nM.

For `CCOC(=O)C1N=C1CCc1ccc(C)cc1` (stereo not drawn) [Compound 7, Ethyl 3-(4-methylphenethyl)-2H-azirine-2-carboxylate], the IC50 [1] was 4000 nM.

`CCOC(=O)C1N=C1CCc1ccc(C(C)(C)C)cc1` (stereo not drawn) [Compound 9, Ethyl 3-(4-(tert-butyl)phenethyl)-2H-azirine-2-carboxylate] gave an IC50 [1] of 550 nM.

`CCOC(=O)C1N=C1CCc1ccc(F)cc1` (stereo not drawn) [Compound 10, Ethyl 3-(4-fluorophenethyl)-2H-azirine-2-carboxylate] gave an IC50 [1] of 600 nM.

In the case of `CCOC(=O)C1N=C1CC/C=C/c1ccccc1` (stereo not drawn) [Compound 11, Ethyl (E)-3-(4-phenylbut-3-en-1-yl)-2H-azirine-2-carboxylate], the IC50 [1] is reported as 450 nM.

In the case of `CCOC(=O)C1N=C1CCc1cc(OC)c(OC)c(OC)c1` (stereo not drawn) [Compound 12, Ethyl 3-(3,4,5-trimethoxyphenethyl)-2H-azirine-2-carboxylate], the IC50 [1] is reported as 200 nM.

For `CCOC(=O)C1N=C1/C=C/c1ccc(OC)cc1` (stereo not drawn) [Compound 13, Ethyl (E)-3-(4-methoxystyryl)-2H-azirine-2-carboxylate], the IC50 [1] was 100 nM and the remarks was “comparable to sunitinib”.

`COC(=O)C1N=C1CCc1ccc(OC)cc1` (stereo not drawn) [Compound 14, Methyl 3-(4-methoxyphenethyl)-2H-azirine-2-carboxylate] showed an IC50 [1] of 750 nM.

`CCOC(=O)C1N=C1CCc1ccc(Br)cc1` (stereo not drawn) [Compound 15, Ethyl 3-(4-bromophenethyl)-2H-azirine-2-carboxylate] gave an IC50 [1] of 800 nM.

Work on `CCOC(=O)C1N=C1CCc1ccc(I)cc1` (stereo not drawn) [Compound 16, Ethyl 3-(4-iodophenethyl)-2H-azirine-2-carboxylate] yielded an IC50 [1] of 800 nM.

In the case of `COc1ccc(CCC2=NC2C(=O)OC(C)(C)C)cc1` (stereo not drawn) [Compound 17, tert-Butyl 3-(4-methoxyphenethyl)-2H-azirine-2-carboxylate], the IC50 [1] is reported as 400 nM.

For `COc1ccc(CC2(C(=O)OCc3ccccc3)N=C2C)cc1` (stereo not drawn) [Compound 18, Benzyl 2-(4-methoxybenzyl)-3-methyl-2H-azirine-2-carboxylate], the IC50 [1] was 400 nM.

Work on `CCCOC(=O)C1N=C1CCc1ccc(OC)cc1` (stereo not drawn) [Compound 19, Propyl 3-(4-methoxyphenethyl)-2H-azirine-2-carboxylate] yielded an IC50 [1] of 800 nM.

In the case of `COc1ccc(CCC2=NC2C(=O)OC(C)C)cc1` (stereo not drawn) [Compound 20, Isopropyl 3-(4-methoxyphenethyl)-2H-azirine-2-carboxylate], the IC50 [1] is reported as 750 nM.

Work on `COc1ccc(CCC2=NC2C(=O)OCC(C)C)cc1` (stereo not drawn) [Compound 21, Isobutyl 3-(4-methoxyphenethyl)-2H-azirine-2-carboxylate] yielded an IC50 [1] of 750 nM.

`CCC(C)OC(=O)C1N=C1CCc1ccc(OC)cc1` (stereo not drawn) [Compound 22, sec-Butyl 3-(4-methoxyphenethyl)-2H-azirine-2-carboxylate] gave an IC50 [1] of 600 nM.

Work on `CCCCCOC(=O)C1N=C1CCc1ccc(OC)cc1` (stereo not drawn) [Compound 23, Pentyl 3-(4-methoxyphenethyl)-2H-azirine-2-carboxylate] yielded an IC50 [1] of 600 nM.

Compound `COc1ccc(CCC2=NC2C(=O)OCCC(C)C)cc1` (stereo not drawn) [Compound 24, Isopentyl 3-(4-methoxyphenethyl)-2H-azirine-2-carboxylate] has an IC50 [1] of 700 nM.

`COCCOC(=O)C1N=C1CCc1ccc(OC)cc1` (stereo not drawn) [Compound 25, 2-Methoxyethyl 3-(4-methoxyphenethyl)-2H-azirine-2-carboxylate] gave an IC50 [1] of 700 nM.

`C=CCOC(=O)C1N=C1CCc1ccc(OC)cc1` (stereo not drawn) [Compound 26, Allyl 3-(4-methoxyphenethyl)-2H-azirine-2-carboxylate] showed an IC50 [1] of 500 nM.

With `CCOC(=O)C1N=C1CCc1ccc2ccccc2c1` (stereo not drawn) [Compound 27, Ethyl 3-(2-(naphthalen-2-yl)ethyl)-2H-azirine-2-carboxylate] the IC50 [1] was 100 nM and the remarks was “comparable to sunitinib”.

With `CCOC(=O)C1N=C1CCc1ccc(OC(F)(F)F)cc1` (stereo not drawn) [Compound 28, Ethyl 3-(4-(trifluoromethoxy)phenethyl)-2H-azirine-2-carboxylate] the IC50 [1] was 50 nM and the remarks was “comparable to sunitinib”.

`CCCCCCCCOC(=O)C1N=C1CCc1ccc(OC)cc1` (stereo not drawn) [Compound 29, Octyl 3-(4-methoxyphenethyl)-2H-azirine-2-carboxylate] was tested, and the IC50 [1] was 250 nM.

Work on `CCOC(=O)C1N=C1CCC1CCCO1` (stereo not drawn) [Compound 30, Ethyl 3-(2-(tetrahydrofuran-2-yl)ethyl)-2H-azirine-2-carboxylate] yielded an IC50 [1] of 250 nM.

`CCOC(=O)C1N=C1CCc1ccc(C#N)cc1` (stereo not drawn) [Compound 31, Ethyl 3-(4-cyanophenethyl)-2H-azirine-2-carboxylate] showed an IC50 [1] of 250 nM.

With `CCCCOc1ccc(CCC2=NC2C(=O)OCC)cc1` (stereo not drawn) [Compound 32, Ethyl 3-(4-butoxyphenethyl)-2H-azirine-2-carboxylate] the IC50 [1] was 50 nM and the remarks was “comparable to sunitinib”.

In the case of `CCOC(=O)C1N=C1CCc1c2ccccc2cc2ccccc12` (stereo not drawn) [Compound 33, Ethyl 3-(2-(anthracen-9-yl)ethyl)-2H-azirine-2-carboxylate], the IC50 [1] is reported as 50 nM and the remarks is reported as “comparable to sunitinib”.

`CCOC(=O)C1(C(=O)OCC)N=C1CCc1ccc(OC)cc1` [Compound 35, Diethyl 3-(4-methoxyphenethyl)-2H-azirine-2,2-dicarboxylate] was tested, and the IC50 [1] was 250 nM.

Work on `C=Cc1ccc(CCC2=NC2C(=O)OCC)cc1` (stereo not drawn) [Compound 36, Ethyl 3-(4-vinylphenethyl)-2H-azirine-2-carboxylate] yielded an IC50 [1] of 250 nM.

In the case of `CCOC(=O)C1N=C1CCCc1ccc2c(c1)CCO2` (stereo not drawn) [Compound 37, Ethyl-3-(3-(2,3-dihydrobenzofuran-5-yl)propyl)-2H-azirine-2-carboxylate], the IC50 [1] is reported as 50 nM and the remarks is reported as “comparable to sunitinib”.

In the case of `CCOC(=O)C1N=C1CCc1cn(C(=O)OC(C)(C)C)c2ccccc12` (stereo not drawn) [Compound 38, tert-Butyl-3-(2-(2-(ethoxycarbonyl)-2H-azirin-3-yl)ethyl)-1H-indole-1-carboxylate], the IC50 [1] is reported as 75 nM and the remarks is reported as “comparable to sunitinib”.

Compound `CCOC(=O)C1N=C1CCc1ccc2c(c1)CCO2` (stereo not drawn) [Compound 39, Ethyl 3-(2-(2,3-dihydrobenzofuran-5-yl)ethyl)-2H-azirine-2-carboxylate] has an IC50 [1] of 2500 nM.

In the case of `CCOC(=O)C1N=C1CCCc1ccc2occc2c1` (stereo not drawn) [Compound 40, Ethyl-3-(3-(benzofuran-5-yl)propyl)-2H-azirine-2-carboxylate], the IC50 [1] is reported as 500 nM.

`CCOC(=O)C1N=C1CCc1ccc2c(c1)OCO2` (stereo not drawn) [Compound 41, Ethyl 3-(2-(benzo[d][1,3]dioxol-5-yl)ethyl)-2H-azirine-2-carboxylate] gave an IC50 [1] of 1000 nM.

With `CCOC(=O)C1N=C1CCCCc1ccc2c(c1)CCO2` (stereo not drawn) [Compound 42, Ethyl 3-(4-(2,3-dihydrobenzofuran-5-yl)butyl)-2H-azirine-2-carboxylate] the IC50 [1] was 25 nM and the remarks was “comparable to sunitinib”.

`CCOC(=O)C1N=C1CCCc1ccc2c(c1)OCO2` (stereo not drawn) [Compound 43, Ethyl 3-(3-(benzo[d][1,3]dioxol-5-yl)propyl)-2H-azirine-2-carboxylate] showed an IC50 [1] of 250 nM.

Compound `CCOC(=O)C1N=C1CCCc1ccc2oc3ccccc3c2c1` (stereo not drawn) [Compound 44, Ethyl 3-(3-(dibenzo[b,d]furan-2-yl)propyl)-2H-azirine-2-carboxylate] has an IC50 [1] of 250 nM.

For `CCOC(=O)C1N=C1CCCc1ccc2c(c1)CCCO2` (stereo not drawn) [Compound 45, Ethyl 3-(3-(chroman-6-yl)propyl)-2H-azirine-2-carboxylate], the IC50 [1] was 100 nM and the remarks was “comparable to sunitinib”.

Work on `CCOC(=O)C1N=C1CCc1ccc(N(C)C)cc1` (stereo not drawn) [Compound 47, Ethyl 3-(4-(dimethylamino)phenethyl)-2H-azirine-2-carboxylate] yielded an IC50 [1] of 500 nM.

From patent US20230234920A1, “Azirine Containing Compounds as Anti-Angiogenesis Agents and a Process for the Preparation Thereof” (COUNCIL OF SCIENTIFIC & INDUSTRIAL RESEARCH, priority 2020, published 2023)
